Reference: patent publication US20250361281A1, “AMYLIN RECEPTOR (hAMY3R) AGONISTS WITH IMPROVED CHEMICAL STABILITY” (GUBRA A/S, priority 2022, published 2025)
Starred links: 1 amine or outer side, 2 acyl side, 3 side chain; linkers in the order of their positions; H or OH if unused. Positions of bridges follow the written chain, without caps; N, C: chain ends. Non-standard residues stand in square brackets, D forms with d. Residues, ends and D or L forms follow the SMILES beside them. No end group written: not given here. *: point of attachment. C20 diacid = O=C(O)CCCCCCCCCCCCCCCCCCC(=O)*; γGlu = O=C(O)[C@H](CCC(=O)[*:2])N[*:1]; Hyp = O=C(O)[C@@H]1C[C@@H](O)CN1

T1: hAMY3 receptor (Homo sapiens, UniProt O60896+P30988)
T1 construct: monoclonal sub-clone
T1 sequence (P30988 25-474): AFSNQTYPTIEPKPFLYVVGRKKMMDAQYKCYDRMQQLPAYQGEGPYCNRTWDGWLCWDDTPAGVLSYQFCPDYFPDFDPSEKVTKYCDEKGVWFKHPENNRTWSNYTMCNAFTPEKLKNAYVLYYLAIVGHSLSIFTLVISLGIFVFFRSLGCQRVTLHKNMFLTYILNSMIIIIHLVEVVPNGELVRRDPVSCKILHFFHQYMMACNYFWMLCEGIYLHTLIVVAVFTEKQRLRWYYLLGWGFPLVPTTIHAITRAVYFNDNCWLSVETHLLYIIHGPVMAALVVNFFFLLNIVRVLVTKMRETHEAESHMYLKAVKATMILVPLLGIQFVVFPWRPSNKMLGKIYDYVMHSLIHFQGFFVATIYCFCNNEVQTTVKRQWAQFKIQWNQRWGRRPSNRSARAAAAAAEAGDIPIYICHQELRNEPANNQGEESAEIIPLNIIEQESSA
T1 sequence (O60896 24-148 partner): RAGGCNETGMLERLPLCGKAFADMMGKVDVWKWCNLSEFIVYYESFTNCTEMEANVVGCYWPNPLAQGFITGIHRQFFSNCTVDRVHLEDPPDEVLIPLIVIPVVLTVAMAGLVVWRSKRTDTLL

T2: human amylin receptor 3 (hAMY3R) (human, UniProt P30988 25-474; O60896 24-148)
T2 sequence (looked up) 1: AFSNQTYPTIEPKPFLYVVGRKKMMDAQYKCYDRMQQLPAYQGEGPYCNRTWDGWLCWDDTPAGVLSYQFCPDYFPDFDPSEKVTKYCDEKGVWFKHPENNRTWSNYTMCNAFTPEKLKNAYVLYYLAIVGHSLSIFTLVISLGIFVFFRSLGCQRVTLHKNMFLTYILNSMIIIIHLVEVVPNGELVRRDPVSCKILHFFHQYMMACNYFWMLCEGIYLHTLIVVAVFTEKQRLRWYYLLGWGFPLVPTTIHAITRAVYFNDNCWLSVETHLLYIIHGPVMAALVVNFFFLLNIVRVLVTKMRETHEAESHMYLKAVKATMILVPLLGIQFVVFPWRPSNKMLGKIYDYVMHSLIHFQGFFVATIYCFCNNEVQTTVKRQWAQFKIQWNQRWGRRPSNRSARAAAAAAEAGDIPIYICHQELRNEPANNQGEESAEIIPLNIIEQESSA
T2 sequence (looked up) 2: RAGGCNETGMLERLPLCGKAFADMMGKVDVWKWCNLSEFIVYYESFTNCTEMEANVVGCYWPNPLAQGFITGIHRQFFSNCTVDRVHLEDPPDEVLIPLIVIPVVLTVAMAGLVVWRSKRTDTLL


Key:
[1] = cited from earlier work; for fibrillation at pH 7: pH 7, background statement
[2] = Physical stability of peptide analogues (Thioflavin T fibrillation); format: physicochemical; conditions: ThT fluorescence, 40° C., shaking, four days; pH 4 or pH 7 buffer
Procedure: General Protocols for Determination of Physical Stability of Peptide Analogues
Peptides were dissolved in buffers (50 mM sodium acetate at pH 4 or 50 mM sodium phosphate at pH 7) and incubated for one hour. The samples were then divided into two replicates of 80 μl in a black 384 well plate (μ-clear, Greiner Bio-One) and mixed with Thioflavin T (ThT) to a final concentration of 4 μM. The plate was sealed and placed in a plate reader (CLARIOstar, BMG) where the temperature was set at 40° C. during the course of the experiment. The samples were further stressed by shaking the plate at 700 rpm (linear) for five minutes before every measurement. The fluorescence was measured every 10 min for four days by exciting the ThT at 450 nm and measuring the emission at 480 nm. For each peptide, the ThT signal over time was smoothened using Local Polynomial Regression fitting (LOESS) as implemented in the statistical programming environment R. For the smoothened data, the maximum ThT signal was normalized in percent between the maximum ThT signal for hAMY and the buffer background.

[3] = Determination of deamidation and isomerization (LC-MS); format: physicochemical; conditions: 50 mM phosphate buffer pH 7, 40° C., up to 28 days
Procedure: General Protocol for Determination of Deamidation and Isomerization
Peptides were dissolved in 50 mM phosphate buffer (pH 7) and incubated at 40° C. for up to 28 days. The samples were then analysed on a Exploris120 mass spectrometer coupled to a Vanquish Tandem UPLC (both Thermo Fisher) equipped with an Acquity BEH C18 column (1.7 um, 2.1×50 mm, 130A, Waters). Peptides were eluted using a linear gradient starting at 5% over 7.5 min to 70% buffer B at a flow rate of 0.4 mL/min (buffer B=100% acetonitrile with 0.1% formic acid; buffer A=100% water with 0.1% formic acid). Data were acquired in data-dependent acquisition mode at a MS1 resolution of 60.000, and a MS2 resolution of 30.000 in positive mode (Top4). Peptides were fragmented with a normalized collision energy of 25%. Deamidation and isomerization were quantified using area under the curve integration.

hAM1 receptor = biological target: T3, hAM1 receptor (Homo sapiens, UniProt O60895+Q16602); conditions: previously shown (WO 2022/063925 A1); read-out: hAM1R EC50; cited from earlier work
T3 construct: monoclonal sub-clone

hAMY3 receptor = biological target: T1, hAMY3 receptor; conditions: previously shown (WO 2022/063925 A1); read-out: hAMY3R EC50; cited from earlier work
[4] = Determination of dimer and HMWP formation (size exclusion chromatography); format: physicochemical; conditions: 50 mM phosphate buffer pH 7, 40° C., up to 28 days
Procedure: General Protocol for Determination of Dimer and HMWP Formation
Peptides were dissolved in 50 mM phosphate buffer (pH 7) and incubated at 40° C. for up to 28 days. The samples were then analysed using size exclusion chromatography analysis to quantify the amount of High Molecular Weight Products (HMWP), which is an overall term for covalently linked peptide dimers, trimers, and higher order multimers. Analyses were carried out on a Dionex Ultimate 3000 RS UHPLC Focused chromatography system (Thermo Scientific) equipped with a Acquity Protein BEH SEC 1.7 μm 4.6×300 mm 125 Å column (Waters part no 186006506). The solvent system consisted of two mobile phases that are assumed to break all non-covalent interactions between peptides leaving only monomeric peptide and covalent HMWP to be analysed. • Mobile phase A (all v/v %): 95% H2O, 5% MeCN (Acetonitrile), 0.1% TFA (Trifluoroacetic acid) • Mobile phase B (all v/v %): 95% MeCN, 5% H2O, 0.1% TFA
The typically load was 1 μl of 1.0 mg/ml, and the detection signal at 215 nm should optimally be between 0.1 and 1.5 abs units. Isocratic elution was done with 60% mobile phase B and a flow of 0.3 ml/min in 20 minutes. Chromatograms were integrated as HMWP (all peaks in front of the main peak) The amount of the various species was reported as area relative to total area in percentage.

[5] = biological target: T2, human amylin receptor 3 (hAMY3R); assay: cell-based or functional assay
[6] = biological target: human adrenomedullin receptor 1 (hAM1R) (human, UniProt Q16602 23-461; O60895 43-175); assay: cell-based or functional assay
Sequence of human adrenomedullin receptor 1 (hAM1R) (Q16602 23-461, chain 1 of 2): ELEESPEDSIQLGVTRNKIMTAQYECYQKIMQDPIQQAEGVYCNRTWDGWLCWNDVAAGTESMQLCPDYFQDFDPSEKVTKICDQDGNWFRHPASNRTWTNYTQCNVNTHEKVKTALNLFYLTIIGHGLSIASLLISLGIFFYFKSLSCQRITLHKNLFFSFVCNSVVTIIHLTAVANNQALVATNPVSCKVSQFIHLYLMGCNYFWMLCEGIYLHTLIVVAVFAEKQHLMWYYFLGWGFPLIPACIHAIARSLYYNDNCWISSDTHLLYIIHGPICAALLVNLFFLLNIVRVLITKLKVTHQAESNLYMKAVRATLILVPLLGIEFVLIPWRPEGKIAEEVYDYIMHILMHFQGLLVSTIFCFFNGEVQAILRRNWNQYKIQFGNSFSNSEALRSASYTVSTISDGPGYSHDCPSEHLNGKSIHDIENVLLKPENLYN
Sequence of human adrenomedullin receptor 1 (hAM1R) (O60895 43-175, chain 2 of 2): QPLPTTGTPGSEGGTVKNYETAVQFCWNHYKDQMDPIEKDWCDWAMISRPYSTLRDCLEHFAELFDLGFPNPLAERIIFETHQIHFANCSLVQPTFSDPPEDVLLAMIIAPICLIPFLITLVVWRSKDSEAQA

T3 sequence (Q16602 23-461): as the sequence (Q16602 23-461, chain 1 of 2) above
T3 sequence (O60895 43-175 partner): as the sequence (O60895 43-175, chain 2 of 2) above

Molecule	Fibril formation [2]	hAMY3R EC50 (nM), cAMP accumulation [5] [nM]	hAM1R EC50 (nM), cAMP accumulation [6] [nM]	other results
CC[C@H](C)[C@H](NC(=O)[C@@H]1CCCN1C(=O)CNC(=O)[C@H](Cc1ccccc1)NC(=O)[C@H](CC(N)=O)NC(=O)[C@H](CC(N)=O)NC(=O)[C@H](CO)NC(=O)[C@H](CO)NC(=O)[C@H](Cc1c[nH]cn1)NC(=O)[C@@H](NC(=O)[C@H](CC(C)C)NC(=O)[C@H](Cc1ccccc1)NC(=O)[C@H](CC(N)=O)NC(=O)[C@H](C)NC(=O)[C@H](CC(C)C)NC(=O)[C@H](CCCNC(=N)N)NC(=O)[C@H](CCC(N)=O)NC(=O)[C@@H](NC(=O)[C@H](C)NC(=O)[C@@H]1CSSC[C@H](NC(=O)[C@@H](N)CCCCN)C(=O)N[C@@H](CC(N)=O)C(=O)N[C@@H]([C@@H](C)O)C(=O)N[C@@H](C)C(=O)N[C@@H]([C@@H](C)O)C(=O)N1)[C@@H](C)O)C(C)C)C(=O)N[C@@H](CC(C)C)C(=O)N1CCC[C@H]1C(=O)N1CCC[C@H]1C(=O)N[C@H](C(=O)N[C@@H](CC(N)=O)C(=O)N[C@H](C(=O)NCC(=O)N[C@@H](CO)C(=O)N[C@@H](CC(N)=O)C(=O)N[C@H](C(=O)N[C@@H](Cc1ccc(O)cc1)C(N)=O)[C@@H](C)O)C(C)C)[C@@H](C)O [Pramlintide]				fibrillation at pH 7 [1]: fibrillates
CC[C@H](C)[C@H](NC(=O)[C@H](CCC(N)=O)NC(=O)[C@H](Cc1c[nH]cn1)NC(=O)[C@H](C)NC(=O)[C@H](CC(C)C)NC(=O)[C@H](CCCCN)NC(=O)[C@H](CCC(N)=O)NC(=O)[C@@H](NC(=O)[C@@H](NC(=O)[C@@H]1CSSC[C@H](NC(=O)CN)C(=O)N[C@@H](CCCNC(=N)N)C(=O)N[C@@H](Cc2ccccc2)C(=O)NCC(=O)N[C@@H]([C@@H](C)O)C(=O)N1)[C@@H](C)O)C(C)C)C(=O)N[C@@H](Cc1ccc(O)cc1)C(=O)N[C@@H](CCC(N)=O)C(=O)N[C@@H](Cc1ccccc1)C(=O)N[C@H](C(=O)N[C@@H](CC(=O)O)C(=O)N[C@@H](CCCCN)C(=O)N[C@@H](CC(=O)O)C(=O)N[C@@H](CCCCN)C(=O)N[C@@H](CC(=O)O)C(=O)N[C@@H](CC(N)=O)C(=O)N[C@H](C(=O)N[C@@H](C)C(=O)N1CCC[C@H]1C(=O)N[C@@H](CCCNC(=N)N)C(=O)N[C@@H](CO)C(=O)N[C@@H](CCCCN)C(=O)N[C@H](C(=O)N[C@@H](CO)C(=O)N1CCC[C@H]1C(=O)N[C@@H](CCC(N)=O)C(=O)NCC(=O)N[C@@H](Cc1ccc(O)cc1)C(N)=O)[C@@H](C)CC)C(C)C)[C@@H](C)O [SEQ ID NO: 1]	No			fibrillation at pH 7 [1]: does not fibrillate
CC[C@H](C)[C@H](NC(=O)[C@H](C)NC(=O)CNC(=O)[C@H](Cc1ccccc1)NC(=O)[C@H](CC(N)=O)NC(=O)[C@H](CC(N)=O)NC(=O)[C@H](CO)NC(=O)[C@H](CO)NC(=O)[C@H](Cc1c[nH]cn1)NC(=O)[C@@H](NC(=O)[C@H](CC(C)C)NC(=O)[C@H](Cc1ccccc1)NC(=O)[C@H](CC(N)=O)NC(=O)[C@H](C)NC(=O)[C@H](CC(C)C)NC(=O)[C@H](CCCNC(=N)N)NC(=O)[C@H](CCC(N)=O)NC(=O)[C@@H](NC(=O)[C@H](C)NC(=O)[C@@H]1CSSC[C@H](NC(=O)[C@@H](N)CCCCN)C(=O)N[C@@H](CC(N)=O)C(=O)N[C@@H]([C@@H](C)O)C(=O)N[C@@H](C)C(=O)N[C@@H]([C@@H](C)O)C(=O)N1)[C@@H](C)O)C(C)C)C(=O)N[C@@H](CC(C)C)C(=O)N[C@@H](CO)C(=O)N[C@@H](CO)C(=O)N[C@H](C(=O)N[C@@H](CC(N)=O)C(=O)N[C@H](C(=O)NCC(=O)N[C@@H](CO)C(=O)N[C@@H](CC(N)=O)C(=O)N[C@H](C(=O)N[C@@H](Cc1ccc(O)cc1)C(N)=O)[C@@H](C)O)C(C)C)[C@@H](C)O [SEQ ID NO: 2]	Yes			
CC[C@H](C)[C@H](NC(=O)[C@H](CCC(N)=O)NC(=O)[C@H](CCC(=O)O)NC(=O)[C@H](C)NC(=O)[C@H](CC(C)C)NC(=O)[C@H](CCCNC(=N)N)NC(=O)[C@H](CCC(N)=O)NC(=O)[C@@H](NC(=O)[C@@H](NC(=O)[C@@H]1CSSC[C@H](NC(=O)[C@H](CCCCN)NC(=O)CC[C@H](NC(=O)CCCCCCCCCCCCCCCCCCC(=O)O)C(=O)O)C(=O)N[C@@H](CC(N)=O)C(=O)N[C@@H]([C@@H](C)O)C(=O)N[C@@H](C)C(=O)N[C@@H]([C@@H](C)O)C(=O)N1)[C@@H](C)O)C(C)C)C(=O)N[C@@H](C)C(=O)N[C@@H](CCC(N)=O)C(=O)N[C@@H](Cc1ccccc1)C(=O)N[C@H](C(=O)N[C@@H](CC(=O)O)C(=O)N[C@@H](CCCCN)C(=O)N[C@@H](CC(=O)O)C(=O)N[C@@H](CCCCN)C(=O)N[C@@H](CC(=O)O)C(=O)N[C@@H](CC(N)=O)C(=O)N[C@H](C(=O)N[C@@H](C)C(=O)N1CCC[C@H]1C(=O)N1CCC[C@H]1C(=O)N[C@H](C(=O)N[C@@H](CC(N)=O)C(=O)N[C@H](C(=O)NCC(=O)N[C@@H](CO)C(=O)N[C@@H](CC(N)=O)C(=O)NCC(=O)N1C[C@H](O)C[C@H]1C(N)=O)C(C)C)[C@@H](C)O)C(C)C)[C@@H](C)O [SEQ ID NO: 3] ({C20 diacid-γGlu}-KCNTATCTVQRLAEQIAQFTDKDKDNVAPPTNVGSNG[Hyp]-NH2; disulfide 2-7)	No			Deamidation [3]: 97%; Isomerization [3]: 5%; EC50 (hAM1 receptor): > 5000 nM; fibrillation ([1]; previously shown): no fibrillation; EC50 (hAMY3 receptor): 14 nM; Dimerization and HMWP formation [4]: 12%
KCNTATCATQRLANFLVHSSNNFGAILSSTNVGSNTY-NH2 (disulfide 2-7) [human amylin hAMY1-37]		0.01	> 5000	
{C20 diacid-γGlu}-KCNTATCTVQRLAEQIAQFTDKDKDNVAPPTNVGSNG[Hyp] (disulfide 2-7; also: C-terminal generally amidated (-CONH2) per the definitions) [reference polypeptide KCNTATCTVQRLAEQIAQFTDKDKDNVAPPTNVGSNG[Hyp] (SEQ ID NO: 3)]		0.014	> 5000	
{C20 diacid-γGlu}-KCLTATCTVARLAEQIAQFTDKDKENVAPPTAVGSAG[Hyp] (bridge 2-7 via ‑S‑CH2‑S‑; also: C-terminal generally amidated (-CONH2) per the definitions) [polypeptide KCLTATCTVARLAEQIAQFTDKDKENVAPPTAVGSAG[Hyp] (SEQ ID NO: 4)]		0.009	> 5000	
